The NIST ThermoML archive (doi:10.1016/j.jct.2012.02.007)
± gives the expanded uncertainty stated by the source.

Conditions: 101.33 kPa, Liquid; for speed of sound: Sing-around technique in a fixed-path interferometer; for mass density: Vibrating tube method

speed of sound (293.15 K) [m/s]	mass density (293.15 K) [kg/m3]	speed of sound (308.15 K) [m/s]	mass density (308.15 K) [kg/m3]	speed of sound (323.15 K) [m/s]	mass density (323.15 K) [kg/m3]	Compound
1223.4 ± 0.8	803.87 ± 0.12	1172.3 ± 0.8	791.79 ± 0.12	1121.8 ± 0.8	779.3 ± 0.13	CCCO [propan-1-ol]
1256.7 ± 0.8	809.53 ± 0.12	1206.5 ± 0.8	798.06 ± 0.12	1156.9 ± 0.8	786.21 ± 0.12	CCCCO [butan-1-ol]
1750.2 ± 2.2	1063.32 ± 0.97	1712.6 ± 2.2	1053.81 ± 0.95	1667.3 ± 2.2	1044.42 ± 0.93	CCCCn1cc[n+](C)c1.N#CN=C=[N-] [1-butyl-3-methylimidazolium dicyanamide]
1292.5 ± 1.3	814.54 ± 0.24	1242.4 ± 1.3	803.53 ± 0.24	1192.8 ± 1.3	792.17 ± 0.24	CCCCCO [pentan-1-ol]
1229.5 ± 0.9	806.47 ± 0.12	1175.5 ± 0.8	793.92 ± 0.12	1120.3 ± 0.8	780.44 ± 0.13	CCC(C)O (stereo unspecified) [butan-2-ol]
1157.3 ± 0.8	785.4 ± 0.13	1104.8 ± 0.8	772.6 ± 0.13	1051.6 ± 0.8	759 ± 0.14	CC(C)O [propan-2-ol]
